Reference: patent US20190125772A1, “IMPROVED DRUG COMBINATIONS FOR DRUG-RESISTANT AND DRUG-SENSITIVE MULTIPLE MYELOMA” (priority 2015, published 2019)

Experiments:
[1] = tested on: RPMI 8226 (Bortezomib-sensitive) versus THLE-2 healthy control cells; experiment: FSC in vitro cellular assay, output = cell viability of THLE-2 minus cell viability of RPMI 8226, with linear regression and response surface maps; format: cell-based; conditions: for drug candidate assessment from two-drug interaction terms: first iteration, interaction coefficients with desirable candidates
From the text: This is expressed as a therapeutic window (% Output) that is the difference in percentage (%) viability between treated multiple myeloma and THLE-2 cells.

[2] = tested on: Bortezomib-sensitive RPMI 8226 multiple myeloma cells; experiment: Inhibitory concentrations (ICx, inhibition of cell growth) of the drugs in FSC-derived optimal combinations, Bortezomib-sensitive multiple myeloma; format: cell-based; conditions: concentration of the single drug as used in optimal combinations
From the text: FIG. 8: Table showing the design of three iterations. IC20 represents 20% inhibitory concentration, which is the dosage of drug for 20% inhibition of cell growth. The first and second iterations are drug screening experiments to remove unfavorable drug candidates.
FIG. 14: Multi-drug optimization experimental assessment of prescribed combinations and output. […] The calculated y from the equation (FIG. 13) is the output as shown here.
In each iteration (experiment run), a list of drug combinations used is based on an experimental design methodology that aims to reduce the number of experiments to obtain sufficient information to build a mathematical equation.
After the list of drug combinations is determined, the drug combinations are applied to an in vitro cellular assay. A healthy control cell (THLE-2) is used to determine liver toxicity caused by drug treatment. Drug efficacy is determined using the B lymphocyte cancer cell (RPMI 8226). Favorable drug combinations would maximize cancer cell killing while minimizing health cell death. […] The experiments are conducted in a rapid, high-throughput manner using an automated liquid handler machine.

## CO[C@@]12[C@H](COC(N)=O)C3=C(C(=O)C(C)=C(N)C3=O)N1C[C@@H]1N[C@@H]12 [Mitomycin C]
[1]; second attempt
  drug candidate assessment from two-drug interaction terms: can be eliminated

## Nc1ncn([C@H]2C[C@H](O)[C@@H](CO)O2)c(=O)n1 [Decitabine, 5-aza-2′-deoxycytidine]
[1]; first attempt
  drug candidate assessment from two-drug interaction terms: can be eliminated

## CC(C)C[C@H](NC(=O)[C@H](CCc1ccccc1)NC(=O)CN1CCOCC1)C(=O)N[C@@H](Cc1ccccc1)C(=O)N[C@@H](CC(C)C)C(=O)[C@@]1(C)CO1 [Carfilzomib, (2S)-N-((S)-1-((S)-4-methyl-1-((R)-2-methyloxiran-2-yl)-1-oxopentan-2-ylcarbamoyl)-2-phenylethyl)-2-((S)-2-(2-morpholinoacetamido)-4-phenylbutanamido)-4-methylpentanamide]
[1]; third iteration, other four drugs kept at 100%
  effect of presence or absence of the drug on the output: does not change the output

## O.O=P1(N(CCCl)CCCl)NCCCO1 (stereo not shown) [Cyclophoshamide monohydrate]
[1]; first attempt
  drug candidate assessment from two-drug interaction terms: can be eliminated
[1]; second attempt
  drug candidate assessment from two-drug interaction terms: can be eliminated

## Cc1[nH]c2ccccc2c1CCNCc1ccc(/C=C/C(=O)NO)cc1 [Panobinostat, (2E)-N-hydroxy-3-[4-({[2-(2-methyl-1H-indol-3-yl)ethyl]amino}methyl)phenyl]acrylamide]
[2]
  IC8.75: ~0.0003239 µM
  IC17.5: ~0.0005905 µM
  IC26.25: ~0.0008734 µM
  IC35: ~1.195 nM
[2]; listed as Panobinostal
  IC8.75: IC8.75/[3.239E−4 μM]
  IC17.5: IC17.5/[5.905E−4 μM]
  IC26.25: IC26.25/[8.734E−4 μM]
  IC35: IC35/[1.195E−3 μM]
